The results in this text go back to PMC10715162 (Microbiology Spectrum, 2023).

The target of this test is T1, F-ATP synthase subunit γ (in MsF1-αβγH65W) (Mycolicibacterium smegmatis, UniProt A0R201, H65W).
T1 construct: gene atpG; recombinant MsF1-αβγH65W complex; with F-ATP synthase subunits α and β
Description: tryptophan fluorescence quenching titration. The test is classed as binding.

The structures appear in SMILES notation.

As a reminder, the Kd is the concentration at which binding is half-saturated. High values mean weaker binding, low ones tighter binding.

T1 sequence (A0R201 2-307 H65W): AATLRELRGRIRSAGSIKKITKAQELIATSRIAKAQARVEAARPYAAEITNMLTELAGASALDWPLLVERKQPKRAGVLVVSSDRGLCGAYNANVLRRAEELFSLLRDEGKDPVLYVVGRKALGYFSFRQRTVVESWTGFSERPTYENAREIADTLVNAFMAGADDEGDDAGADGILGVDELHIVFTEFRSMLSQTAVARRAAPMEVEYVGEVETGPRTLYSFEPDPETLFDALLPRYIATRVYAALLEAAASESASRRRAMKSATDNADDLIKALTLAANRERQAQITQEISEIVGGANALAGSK
T1 sequence (A0R202 2-548 partner): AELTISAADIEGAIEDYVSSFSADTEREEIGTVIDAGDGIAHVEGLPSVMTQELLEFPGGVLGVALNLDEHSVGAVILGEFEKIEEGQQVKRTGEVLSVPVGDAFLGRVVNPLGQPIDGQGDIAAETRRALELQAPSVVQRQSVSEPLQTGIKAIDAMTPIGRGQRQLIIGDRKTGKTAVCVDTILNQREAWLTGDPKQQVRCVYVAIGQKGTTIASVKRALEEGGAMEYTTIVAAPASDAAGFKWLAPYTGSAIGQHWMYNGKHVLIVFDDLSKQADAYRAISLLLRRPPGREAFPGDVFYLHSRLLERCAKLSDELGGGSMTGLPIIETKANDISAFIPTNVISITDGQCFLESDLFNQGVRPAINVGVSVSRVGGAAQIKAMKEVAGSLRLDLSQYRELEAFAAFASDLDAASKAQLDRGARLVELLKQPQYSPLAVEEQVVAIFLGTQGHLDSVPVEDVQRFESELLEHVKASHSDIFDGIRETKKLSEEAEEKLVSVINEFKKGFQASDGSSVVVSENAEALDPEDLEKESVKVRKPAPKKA
T1 sequence (A0R200 2-475 partner): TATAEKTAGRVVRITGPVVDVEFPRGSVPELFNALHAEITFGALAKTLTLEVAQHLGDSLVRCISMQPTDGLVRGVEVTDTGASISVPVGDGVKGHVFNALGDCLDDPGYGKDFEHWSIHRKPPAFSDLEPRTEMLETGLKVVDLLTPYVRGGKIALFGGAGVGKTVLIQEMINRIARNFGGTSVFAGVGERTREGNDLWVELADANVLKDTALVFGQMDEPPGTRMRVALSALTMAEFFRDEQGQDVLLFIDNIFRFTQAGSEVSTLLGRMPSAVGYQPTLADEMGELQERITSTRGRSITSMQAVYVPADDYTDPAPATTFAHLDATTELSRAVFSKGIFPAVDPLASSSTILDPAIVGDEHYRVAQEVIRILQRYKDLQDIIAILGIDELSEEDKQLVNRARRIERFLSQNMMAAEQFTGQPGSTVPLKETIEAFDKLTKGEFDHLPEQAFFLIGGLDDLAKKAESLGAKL

Regarding `CCNc1cc(C)nc(Nc2ccc3nc(-c4ccc(Cl)cc4)[nH]c3c2)n1` [GaMF1.39], the Kd is 0.7 ± 0.09 µM.
